We go through three compounds from patent US10945978B2, “Treatment and diagnosis of melanoma” (The Rockefeller University, priority 2012, dated 2021).

Assay [1] relates to human umbilical vein endothelial cells (HUVEC's). As to the kind of experiment: Endothelial recruitment assay (HUVEC migration towards melanoma cells). Format: cell-based. The following applies: for ability of melanoma cells to recruit endothelial cells: MeWo, HT-144, SK-Mel-2, SK-Mel-334.2, 1 μM for 72 hours. How it is done: 5×10^4 cancer cells were seeded into 24-well plates approximately 24 hours prior to the start of the assay. HUVEC's were grown to 80% confluency and serum starved in EGM-2 media supplemented with 0.2% FBS for 16 hours. HUVEC's were then pulsed with Cell Tracker Red CMTPX dye (C34552, Invitrogen) for 45 minutes. Meanwhile, cancer cells were washed with PBS, 0.5 mL of 0.2% FBS EGM-2 media was added to each well, and a 3.0 μm HTS Fluoroblock insert (351151, BD Falcon, San Jose, Calif.) was placed into each well. 1×10^5 HUVEC's, resuspended in 0.5 mL of starvation media, were seeded into each trans-well insert, and the recruitment assay was allowed to proceed for 16-18 hours at 37° C. For neutralization antibody and/or recombinant protein experiments, antibody/protein was then added to each well at the appropriate concentration as indicated in the figures: 40 μg/mL anti-ApoE 1D7, 40 μg/mL anti-IgG, 100 μM rhApoE3, and 100 μM BSA. Upon completion of the assay, the inserts were processed and analyzed as described for the matrigel invasion assay above (See Matrigel Invasion Assay).
The endothelial recruitment assay was carried out as previously described (Pencheva et al., 2012; Png et al., 2012). Melanoma cells were treated with DMSO, GW3965, T0901317, or Bexarotene at 1 μM for 56 hours, after which 5×10^4 cells were seeded in a 24-well plate in the presence of each drug and allowed to attach for 16 hours prior to starting the assay. HUVEC cells were serum-starved overnight in EGM-2 media containing 0.2% FBS. The following day, 1×10^5 HUVEC cells were seeded into a 3.0 μm HTS Fluoroblock trans-well migration insert (351151, BD Falcon, San Jose, Calif.) fitted into each well containing cancer cells at the bottom. The HUVEC cells were allowed to migrate towards the cancer cells for 20 hours at 37° C., after which the inserts were processed as previously described (Pencheva et al., 2012). For ApoE antibody neutralization experiments, 40 μg/mL 1D7 anti-ApoE blocking antibody (Heart Institute, University of Ottawa, Ottawa, Canada) or 40 μg/mL anti-IgG control antibody (AB-108-C, R&D Systems, Minneapolis, Minn.) was added to each trans-well insert at the start of the assay.
Subsequently, 5×10^4 cancer cells were seeded into 24-well plates in the presence of each drug or DMSO and allowed to attach for 16 hours prior to starting the assay. Human umbilical vein endothelial cells (HUVEC cells) were serum-starved in 0.2% FBS-containing media overnight. The following day, 1×10^5 HUVEC cells were seeded into a 3.0 μm HTS Fluoroblock insert (351151, BD Falcon) fitted into each well containing the cancer cells at the bottom. The HUVEC cells were allowed to migrate towards the cancer cells for 20 hours, after which the inserts were washed in PBS, fixed in 4% PFA, labeled with DAPI, and mounted on slides. The basal side of each insert was imaged using an inverted fluorescence microscope (Zeiss Axiovert 40 CFL) at 5× magnification, and the number of DAPI-positive cells was quantified using ImageJ.

For assay [2], the system named is melanoma cells (MeWo, MeWo-LM2, HT-144, SK-Mel-334.2) and endothelial cells. In words: In vitro cell proliferation, viability and serum starvation assays. Format: cell-based, human. Also noted: melanoma cell or endothelial cell in vitro proliferation: dose or concentration left out as unconfirmed. The note with it: for cell proliferation or cell viability rates: MeWo, HT-144, SK-Mel-334.2, 1 μM, 5 days. How it is done:
To determine the effects of miR-199a or miR-1908 over-expression and combinatorial LNA-induced miRNA inhibition on cell proliferation, 2.5×10^4 cells were seeded in triplicate in 6-well plates, and viable cells were counted after 5 days. […] Viable cells were counted after 8, 24, 48, 72, and 120 hours.
The number of viable cells was counter after 8, 16, and 24 hours.
To determine the effects of GW3965, T0901317, and Bexarotene on in vitro cell growth, 2.5×10^4 melanoma cells were seeded in triplicate in 6-well plates and cultured in the presence of DMSO, GW3965, T0901317, or Bexarotene at 1 μM each. After 5 days, the number of viable and dead cells was counted using the trypan blue dye (72-57-1, Sigma-Aldrich), which selectively labels dead cells.

Counter-ions that a name gives are not always drawn.

Take “recombinant human ApoE: recombinant human ApoE3 (4696, BioVision)”: in assay [1] (endothelial cells pre-incubated with ApoE3 100 μM for 24 hours, LM2 cells), the “migration of endothelial cells towards highly metastatic cancer cells” value is recorded as “significantly reduced”. For the same compound, the endothelial recruitment result in assay [1] (metastatic LM2 cells, recombinant ApoE3 100 μM vs BSA) was “significantly suppressed”. Further, in assay [2] (MeWo-LM2 cells or endothelial cells, ApoE), the “melanoma cell or endothelial cell in vitro proliferation” value is “did not affect”. Also, the “survival in serum starvation conditions” value in assay [2] (MeWo-LM2 cells or endothelial cells, ApoE, 0.2% FBS) is listed as “did not affect”.
Consider `O=S(=O)(c1ccccc1)N(CC(F)(F)F)c1ccc(C(O)(C(F)(F)F)C(F)(F)F)cc1` [T0901317 1], for which, in assay [1], the “ability of melanoma cells to recruit endothelial cells” value is on record as “consistently suppressed”. For the same compound, the “cell proliferation or cell viability rates” value in assay [2] is recorded as “did not affect”.
As for `O=C(O)Cc1cccc(OCCCN(Cc2cccc(C(F)(F)F)c2Cl)CC(c2ccccc2)c2ccccc2)c1` [GW3965 2, 3-[3-[N-(2-Chloro-3-trifluoromethylbenzyl)-(2,2-diphenylethyl)amino]propyloxy] phenylacetic acid hydrochloride], the endothelial recruitment result in assay [1] (MeWo cells pre-treated 48 hours) is reported as “decreased”. Besides, the “ability of melanoma cells to recruit endothelial cells” value in assay [1] is “consistently suppressed”. In assay [2], the “cell proliferation or cell viability rates” value is “did not affect”.
